Positions of bridges follow the written chain, without caps; N, C: chain ends. Non-standard residues stand in square brackets, D forms with d. Primed or numbered codes have the meaning given here. Chains are numbered I, II in the order given. No end group written: not given here. PEG12′ = not defined here; Nle = CCCC[C@H](N)C(=O)O
What was measured:
H4IIE Rat Hepatoma Cells = test: Insulin-dependent effect on glucose production by cultured rat liver cells; format: cell-based; conditions: 24 hour; for Glucose Levels, MEAN % Control, +Insulin: peptide 10 μM + insulin 800 pM, percent of insulin (800 pM); for Glucose Levels, MEAN % Control, −Insulin: peptide 10 μM alone, percent of untreated control cells
Protocol: The effect of the peptides on glucose production was assessed in the absence and presence of insulin using an assay of glucose levels in cultured cells such as rat hepatocytes. Peptides were initially prepared as 10 mM stock in DMSO and used at a final concentration of 10 μM (0.1% DMSO). Insulin (800 pM) was used as a partial inhibitor of glucose production. H4-IIE cells purchased from ATCC (Manassas, Va.) were seeded at 100,000 cells/well in standard medium (DMEM/high glucose+10% FBS+1× Glutamax+antibiotics) on 96-well plates and allowed to adhere overnight at 37° C. in a humidified atmosphere of 5% CO2/95% air. Approximately 24 h after seeding, the medium was removed, cells rinsed with glucose free DMEM, and Glucose Production Medium (glucose free DMEM+2 mM sodium pyruvate+10 mM sodium lactate) was added. The cultures were placed at 37° C. in a humidified atmosphere of 5% CO2/95% air overnight. The next morning, the medium was removed and fresh Glucose Production Medium containing compounds was added. Insulin at 800 pM was added to control wells. Peptides (10 μM) in the absence or presence of insulin (800 pM) were added to test wells. Cells in the presence of compounds were placed at 37° C. in a humidified atmosphere of 5% CO2/95% air overnight. After 24 hour incubation, conditioned medium from each well was transferred to a fresh 96-well plate for quantitation of glucose content. Quantitation of glucose levels was determined using an Amplex Red Glucose Assay kit (Abacm; Cambridge, Mass.) according to the manufacturer's instructions using a Cytation 3 plate reader at 570 nm (BioTek, Winooski, Vt.). Absorbance values were expressed as a percent of untreated control cells (maximum glucose production) for peptide alone samples or insulin (800 pM) for peptides in the presence of insulin (800 pM. Glucose levels for insulin (800 pM) treatment were ˜80-90% of the untreated control values. The results are reported in Table 15.

3T3-L1 Mouse Adipocytes = test: Insulin-dependent effect on free fatty acid levels in cultured mouse adipocytes; format: cell-based; conditions: 3 hours; for Free Fatty Acid Levels, MEAN % ISO, +Insulin: peptide 10 μM + insulin 0.25 nM, percent of isoproterenol (0.1 nM)+insulin (0.25 nM); for Free Fatty Acid Levels, MEAN % ISO, −Insulin: peptide 10 μM alone, percent of isoproterenol (0.1 nM) treated control cells
Protocol: The effect of the peptides on fatty acid metabolism was assessed in the absence and presence of insulin using an assay of free fatty acid levels in cultured cells such as mouse adipocytes. Peptides were initially prepared as 10 mM stock in DMSO and used at a final concentration of 10 μM (0.1% DMSO). […] Insulin (0.25 nM) was used as a partial inhibitor and insulin (10 nM) was used as a potent inhibitor of isoproterenol stimulated fatty acid production. Mouse 3T3-L1 cells purchased from ZenBio (Research Triangle Park, N.C.) were seeded at 3,000 cells per well on 96-well plates in Pre-Adipocyte Medium (Zen-Bio) and grown to confluence at 37° C. in a humidified atmosphere of 5% CO2/95% air. Two days after confluence, cells were placed in Adipocyte Differentiation Medium (Zen-Bio) and cultured for three additional days at 37° C. in a humidified atmosphere of 5% CO2/95% air. The culture medium was then partially replaced with Adipocyte Maintenance Medium (Zen-Bio) and the cells maintained at 37° C. in a humidified atmosphere of 5% CO2/95% air with partial medium replacement every other day. At 12 day of differentiation, 96-well cultures were transferred to Adipocyte Maintenance Medium without insulin and placed at 37° C. in a humidified atmosphere of 5% CO2/95% air for two days. Following this incubation period, the medium was removed from 14 day differentiated cultures and replaced with Assay Buffer (Zen-Bio) containing peptides (10 μM), insulin (0.25 nM or 10 nM), isoproterenol (0.1 nM) as appropriate. […] isoproterenol was added to all wells except untreated controls. Insulin at 0.1 nM and 10 nM was added to control wells. Peptides (10 μM) in the absence or presence of insulin (0.25 nM) were added to test wells. Cells in the presence of compounds were placed at 37° C. in a humidified atmosphere of 5% CO2/95% air for 3 hours. At the end of the final 3 h incubation, conditioned assay buffer was removed from each well and place in a fresh 96-well plate for quantitation of free fatty acid content. Free fatty acid concentrations in the assay buffer samples were determined using a Free Fatty Acid Assay kit (Zen-Bio) according to the manufacturer's instructions using a Cytation 3 plate reader at 540 nm (BioTek, Winooski, VD. Absorbance values were corrected for untreated background and expressed as a percent of isoproterenol (0.1 nM) treated control cells for peptides alone or isoproterenol (0.1 nM)+insulin (0.25 nM) for peptides in presence of insulin (0.25 nM). Treatment with isoproterenol […] alone was used as the free fatty acid level stimulatory control. The relative standard deviation of the isoproterenol control was <10%. […] Free fatty acid levels for insulin (10 nM) treatment were <5% of the isoproterenol control value. Free fatty acid levels for insulin (0.25 nM) treatment were 60-80% of the isoproterenol control value.

Substance | Glucose Levels, MEAN % Control, +Insulin (H4IIE Rat Hepatoma Cells) [%] | Glucose Levels, MEAN % Control, −Insulin (H4IIE Rat Hepatoma Cells) [%] | Free Fatty Acid Levels, MEAN % ISO, +Insulin (3T3-L1 Mouse Adipocytes) [%] | Free Fatty Acid Levels, MEAN % ISO, −Insulin (3T3-L1 Mouse Adipocytes) [%] | Glucose Levels, MEAN % Control, +Insulin (H4IIE Rat Hepatoma Cells; listed as 5) [%] | Glucose Levels, MEAN % Control, −Insulin (H4IIE Rat Hepatoma Cells; listed as 5) [%] | Free Fatty Acid Levels, MEAN % ISO, +Insulin (3T3-L1 Mouse Adipocytes; listed as 5) [%] | Free Fatty Acid Levels, MEAN % ISO, −Insulin (3T3-L1 Mouse Adipocytes; listed as 5) [%]
MRVIRMCLGVGLLGDLAG [SEQ ID NO: 2] | 79.7 | 121 | 60.5 | 98.8 |  |  |  | 
R(dA)IR(Nle)SLNVGLLGEL(dA) (R[dA]IR[Nle]SLNVGLLGEL[dA]) [SEQ ID NO: 15] | 95.2 | 94.3 | 112.6 | 97.6 |  |  |  | 
RVIR(Nle)CLNVGLLGEL(dA)G (RVIR[Nle]CLNVGLLGEL[dA]G) [SEQ ID NO: 6] | 82.5 | 109 | 66.9 | 93.6 |  |  |  | 
RVIR(Nle)SLNVGLEGEL(dA) (RVIR[Nle]SLNVGLEGEL[dA]) [SEQ ID NO: 14] | 97.8 | 104 | 71.9 | 89.9 |  |  |  | 
RVIR(Nle)SLNVGLLGEL(dA)G (RVIR[Nle]SLNVGLLGEL[dA]G) [SEQ ID NO: 8] | 63.5 | 105 | 74.9 | 69.3 |  |  |  | 
RVIRMCLGVGLLGDL(dA)G (RVIRMCLGVGLLGDL[dA]G) [SEQ ID NO: 4] | 54.3 | 119 | 36.6 | 92.9 |  |  |  | 
RVIRMCLGVGLLGDLAG (disulfide I:6-II:6) [SEQ ID NO: 26] | 21 | 114 | 33.4 | 93.5 |  |  |  | 
RVIRMCLGVGLLGDLAG [SEQ ID NO: 3] | 39.9 | 121 | 37.1 | 98.0 |  |  |  | 
RVIRMCLGVGLLGDLAGK{PEG12} (RVIRMCLGVGLLGDLAGK(PEG12′)) [SEQ ID NO: 17] | 18.8 | 105 | 35.9 | 102 |  |  |  | 
RVIRMCLGVGLLGDLAGK{PEG12} (chain 1 RVIRMCLGVGLLGDLAGK(PEG12′); chain 2 RVIRMCLGVGLLGDLAGK(PEG12′); disulfide I:6-II:6) [SEQ ID NO: 28] | 23.9 | 92.0 | 33.4 | 80.7 |  |  |  | 
RVIRMCLNNGLLGEL(dA)G (RVIRMCLNNGLLGEL[dA]G) [SEQ ID NO: 9] | 19.1 | 103 | 41.0 | 95.2 |  |  |  | 
RVIRMCLNNGLNGEL(dA)E (RVIRMCLNNGLNGEL[dA]E) [SEQ ID NO: 23] | 3.1 | 36 | 43.9 | 99.4 |  |  |  | 
RVIRMCLNVGLLGEL(dA)E (RVIRMCLNVGLLGEL[dA]E) [SEQ ID NO: 12] | 57.8 | 107 | 41.2 | 92.8 |  |  |  | 
RVIRMCLNVGLLGEL(dA)G [SEQ ID NO: 5] (RVIRMCLNVGLLGEL[dA]G) |  |  |  |  | 54.5 | 117 | 37.0 | 94.3
RVIRMCLNVGLNGEL(dA)G (RVIRMCLNVGLNGEL[dA]G) [SEQ ID NO: 11] | 32.7 | 105 | 44.0 | 65.5 |  |  |  | 
RVIRMCLNVGNLGEL(dA)G (RVIRMCLNVGNLGEL[dA]G) [SEQ ID NO: 10] | 38 | 101 | 63.2 | 90.7 |  |  |  | 
RVIRMSLNVGLEGEL(dA) (RVIRMSLNVGLEGEL[dA]) [SEQ ID NO: 13] | 46.8 | 71.4 | 78.4 | 89.5 |  |  |  | 
RVIRMSLNVGLLGEL(dA)G (RVIRMSLNVGLLGEL[dA]G) [SEQ ID NO: 7] | 74.4 | 89.2 | 74.5 | 91.1 |  |  |  | 
